According to US7629318B2, “Immunosuppressant compounds, methods and uses related thereto” (priority 2002, dated 2009):
“And” between values parts separate entries of the source, which are not always exact repeats. Equal entries are not always repeated. Numbered stars: 1 amine (or outer) side, 2 acyl side, 3 side chain; on linkers, the order of the positions; unused ones are H or OH. Square brackets hold non-standard residues; d marks the D form. Peptide text beside a SMILES is read from it. X1 = CC(C)c1oc([C@H](CO)N[*:1])nc1C(=O)[*:2]; Pro(3R-Ph) = O=C(O)[C@H]1NCC[C@@H]1c1ccccc1; Tic = O=C(O)[C@@H]1Cc2ccccc2CN1; Cha = N[C@@H](CC1CCCCC1)C(=O)O

Legend:
[1] = tested on: T cell activation from 0401(DR4) chimeric MHCII-mice; assay: In vivo inhibition of T cell activation by co-immunisation, DR4 mice immunised with HEL; design: species or system mouse; % Reduction of response to PPD(HEL): concentration or dose not given beside the values
Excerpt: (§1) Mouse strains DR4 and DR14 carry chimeric MHC-II transgenes that encode the N-terminal domains of the respective DR molecules (forming the peptide binding site) and the remaining (2nd extracellular domains, transmembrane and intracytoplasmic domains) of the murine class II molecule I Ed. These strains are deficient of other murine class II, and thus, all helper T cell responses are triggered by peptides presented in the respective human MHC-II binding site. As an initial in vivo test of subject inhibitors designed to bind to DR, DR-transgenic mice were co-immunized with a pre-defined dose of protein antigen and different amounts of the compound antagonist to be tested. In this set-up, both antigen and compound were emulsified together in complete Freund's adjuvant (CFA), and thus, a direct competition between the two components for presentation by DR was tested. Readout of the assay is ex vivo antigen-specific activation of T cells from regional lymph nodes explanted 9 days after co-immunization. In a typical experiment, antigen dose-response was investigated, and the curves from mice immunized with antigen were compared to those from mice co-immunized with antigen+compound. The dose response curves were generated using lymph node cells pooled at equal numbers from 2-3 mice per experimental group. The experimental system also permits assessment of inherent antigenicity of the compound antagonist. This was done by setting up a dose-response study from the same cell pool using different concentrations of the compund under investigation instead of the antigen. As a specificity control, the response to Purified Protein Derivative (PPD), the major protein component of CFA, was tested in the same cell pool.
(§2) All Gpg conataining compounds have significant immunosupressive properties in one or both of the in-vivo models. Gpg-containing compounds also show improved activity or improved specificity over the Arg-containing equivilent. Further, compounds according to Formula I show activity in this assay.
(§3) Compounds of the invention were injected as an Emulsion prepared using CFA (Bacto Adjuvant Complete H37 Ra, Difco, Order-No. 3113-60); proteins 10 mg/ml in PBS, inhibitors 5 μM in 10% DMSO. CFA, PBS, antigen, and inhibitor were placed in the barrel of a 5-ml syringe (total volume not more than 1 mL). The mixture was sonicated at an amplitude less than 40% (30-35%) for two separated 15 s periods. The emulsion should seem to be hard and not liquid at this point. A drop of emulsion placed on the surface of water should not melt. The resulting emulsion was pushed through the needle into a 1 ml syringe with a needle (Gr.18, 26G×1″), and air bubbles were removed. Mice were co-immunized with 50 μg protein and 210 nM compound antagonist in final 100 μl emulsion into the tail base. Antigen+Compound and CFA are mixed 1:1 vol/vol. The best results are obtained using DR 4 mice immunised with HEL and DR 14 mice immunized with OVA.
(§4) Mice were injected at the tail-base as follows: Holding the tail of a mouse with thumb and middle finger, the index finger was placed under the base of the mouse's tail. The needle of the syringe was inserted about 1.5 cm from the tail base (hairy end) under the skin and pushed about 1 cm into the tail. 100 μl emulsion was injected into the mouse. After 9 days, mice were killed and lymph nodes removed.
(§5) The inhibitory effect of the candidate compounds on T-cell activation was tested using T-cells and antigen-presenting cells isolated from the lymph nodes of chimeric DR4-IE transgenic mice (Taconic, USA) previously co-immunized with hen egg lysozyme plus compound, or DR14-IE transgenic mice co-immunized with ovalbumin plus compound according to standard procedures (Adorini et al., 1988, Mueller et al., 1990; Current Protocols in Immunology, Vol. 2, 7.21; Ito et al., 1996). […]

[2] = tested on: T cell activation from 0404(DR14) chimeric MHCII-mice; assay: In vivo inhibition of T cell activation by co-immunisation, DR14 mice immunised with OVA; design: species or system mouse; % Reduction of response to PPD(OVA): concentration or dose not given beside the values
Excerpt: as §1, §2, §3, §4, §5

[3] = molecular target: DR4Dw4 (DRA1*0101 DRB1*0401) (Homo sapiens, UniProt P01903+P01911, A100K/A169T/F76Y/I96L/K127E/L162R/M171V/N62H/P40V/Q125Y/R42H/S133A/S149N/S66Y/V115G/V209L/W38E); assay: Competitive binding to MHC-II protein DR4Dw4
How it was run: (§6)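 Each MHC-II allele incubated with compound 16 hours at room temperature in duplicate; controls lacked compound, or both compound and MHC-II. Complexes captured 2 h at 4 °C, bound biotinylated peptide detected via europium-streptavidin and DELFIA enhancement, time-resolved fluorescence read at ex 340/em 613 (615) nm.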

[4] = molecular target: DR1 (DRA1*0101 DRB1*0101) (Homo sapiens, UniProt P01903+P01911, A100R/D57E/F55L/F60I/F76Y/I96L/L162R/M171V/P40L/Q125E/R42F/V115G/Y59C); assay: Competitive binding to MHC-II protein DR1; settings: Protein binding IC50 (nM) 0101, 0101
How it was run: as §6

[5] = molecular target: DR4Dw14 (DRA1*0101 DRB1*0404) (Homo sapiens, UniProt P01903+P01911, A100R/A169T/F76Y/I96L/K127E/L162R/M171V/N62H/P40V/Q125Y/R42H/S133A/S149N/S66Y/V209L/W38E); assay: Competitive binding to MHC-II protein DR4Dw14; settings: 0404; read-out: Protein binding IC50 (nM) 0404
How it was run: as §6

[6] = molecular target: T1, Priess (DR4Dw4: DRA1*0101 DRB1*0401) cells (Homo sapiens, UniProt P01903+P01911, A100K/A169T/F76Y/I96L/K127E/L162R/M171V/N62H/P40V/Q125Y/R42H/S133A/S149N/S66Y/V115G/V209L/W38E); assay: Competitive binding to MHC II proteins expressed on Priess cells; type: cell-based
T1 construct: MHC II Proteins Expressed on PRIESS and LG2 Cells; endogenous in cells; host or cells: Priess cells
Description: (§7) For use in the binding assay the cells were re-suspended in medium containing 1% FCS at a density of 2.5×10^6 cells/ml.
(§8) The assay was performed in sterile 96 well polystyrene microtiter plates. A 10 fold dilution series of compounds (16 nM-1615 μM) in 1% FCS was prepared from 5 or 10 mM compound stock solutions in 10% DMSO/water. 50 μl of each compound dilution were added in duplicates to 50 μl of a 16 μM solution of indicator peptide in 1% FCS. Cell binding was initiated by adding 100 μl of 2.5×10^6 cells/ml 1% FCS to each well. Controls were included containing the DMSO concentration present in the solution with the highest compound concentration. The cells were incubated at 37° C., 6% CO2. After 4 hours the cells were washed with 200 μl PBS and lysed in 200 μl lysis buffer (50 mM sodium phosphate, 150 mM sodium chloride, 1% (w/v) NP-40, 25 mM iodoacetamide, 1 mM PMSF, 3.1% protease inhibitor cocktail: 0.32 g/l of Chymostatin, Antipain, Pepstatin A, Soybean trypsin inhibitor and Leupeptin each, pH 7.5) for 10 min.
(§9) After washing with PBS, 190 μl of cell lysate were transferred to the appropriate wells of the capture plate and incubated for 2 h at 4° C. The wells were washed six times with 200 μl/well cooled (4 to 8° C.) of 1×DELFIA wash (Wallac-ADL-GmbH, Freiburg), incubated with 100 μl of cooled Europium-streptavidin conjugate (Wallac-ADL-GmbH, Freiburg; diluted 1/1000 with DELFIA assay buffer) for 30 minutes at 4° C., again washed six times with cooled 1×DELFIA wash and, finally, incubated with 200 μl cooled DELFIA enhancement solution (Wallac-ADL-GmbH, Freiburg) for one hour at room temperature before reading the time-resolved europium fluorescence at λex Eu^3+: 340 nm and λem Eu^3+: 613 (615) nm (Wallac Victor^2 1420 Multilabel Counter, Wallac-ADL-GmbH, Freiburg).

[7] = molecular target: T2, LG2 (DR1: DRA1*0101 DRB1*0101) cells (Homo sapiens, UniProt P01903+P01911, A100R/D57E/F55L/F60I/F76Y/I96L/L162R/M171V/P40L/Q125E/R42F/V115G/Y59C); assay: Competitive binding to MHC II proteins expressed on LG2 cells; type: cell-based; settings: Cell binding IC50 (uM) LG2 (0101), LG2 (0101)
T2 construct: MHC II Proteins Expressed on PRIESS and LG2 Cells; endogenous in cells; host or cells: LG2 cells
Description: as §7, §8, §9

[8] = tested on: T-cell proliferation, lymph node cells of chimeric 0401-IE transgenic mice; settings: read-out: Immunsupressive assays DR4-LN (IC50); DR4-LN
Description: The compounds were tested as follows to inhibit the proliferative T cell response of antigen-primed lymph node cells from mice carrying a chimeric mouse-human class II transgene with an RA-associated peptide binding site, and lack murine class II molecules (Muller et al., 1990; Woods et al., 1994; Current Protocols in Immunology, Vol. 2, 7.21; Ito et al., 1996). Here, the immunization takes place in vivo, but the inhibition and readout are ex vivo. […] These mice lack murine MHC class II, and thus, all Th responses are channelled through a single human RA-associated MHC class II molecule (Ito et al. 1996). These transgenic mice represent a model for testing human class II antagonists.
1.5×10^5 cells are incubated in 0.2 ml wells of 96-well tissue culture plates in the presence of ovalbumin (30 μg per well—half-maximal stimulatory concentration) and a dilution series of the compound under test (from around 0.1 to 200 uM) in serum free HL-1 medium containing 2 mM L-glutamine and 0.1 g/l Kanamycin for three days. Antigen specific proliferation is measured by 3H-methyl-thymidine (1 μCi/well) incorporation during the last 16 h of culture (Falcioni et al., 1999). Cells are harvested, and 3H incorporation measured using a scintillation counter (TopCount, Wallac Finland).

[9] = molecular target: Cathepsin B1 (EC 3.4.22.1 from bovine spleen) (Bos taurus, UniProt P07688); settings: Cathepsin B, 4 h
Cathepsin L = Cathepsin L (Homo sapiens, UniProt P07711)
[10] = tested on: T-cell proliferation, DR14-LN; settings: read-out: Immunsupressive assays DR14-LN (IC50)

Compound	% Reduction of response to HEL ([1]; DR4 mice co-immunised with HEL plus compound, mean % inhibition from the control over 3 concentrations of antigen (6.7, 20 and 60 ug))	% Reduction of response to PPD(HEL) ([1]; specificity control: response to PPD in the same cell pool, HEL co-immunised mice)	% Reduction of response to OVA ([2]; DR14 mice co-immunised with OVA plus compound, mean % inhibition from the control over 3 concentrations of antigen (6.7, 20 and 60 ug))	% Reduction of response to PPD(OVA) ([2]; specificity control: response to PPD in the same cell pool, OVA co-immunised mice)	IC50 [3]	IC50 [4]	IC50 [5]	IC50 [6]	IC50 [7]	IC50 [8]	Stability (Arbitrary units) Cath B 4 h [9]	Stability (Arbitrary units) Cath L 4 h (Cathepsin L)	IC50 [10]
Ac-Cha-Gpg-Disc-Nle-βPhPro-[S(oxaz)L]-NMe2 [Compound P61-1]	37.9%	32.3%	3.7%	29.9%									
CSCC[C@H](NC(=O)[C@@H]1Cc2ccccc2CN1C(=O)[C@H](CCCNC(=N)N)NC(=O)[C@H](CC1CCCCC1)NC(C)=O)C(=O)N1CC[C@H](c2ccccc2)[C@H]1C(=O)N[C@@H](CO)c1nc(C(=O)N(C)C)c(C(C)C)o1 [Compound P33, Ac-Cha-Arg-Tic-Met-βPhPro-[S(oxaz)L]-NMe2] (Ac-[Cha]R[Tic]M[Pro(3R-Ph)][X1]-NMe2)					0.3 µM	190 nM	220 nM	3.2 µM	4.6 µM	40 µM	97 Arbitrary units and 98 Arbitrary units	107 Arbitrary units	32 µM
